What was measured:
Assay in all cases: relative viability (nuclei count vs DMSO), 5 days (fraction); higher = more cells survive
Dasatinib + Vorinostat = compound: Cc1nc(Nc2ncc(C(=O)Nc3c(C)cccc3Cl)s2)cc(N2CCN(CCO)CC2)n1 [Dasatinib] + O=C(CCCCCCC(=O)Nc1ccccc1)NO [Vorinostat] (partner 1 µM)
In short: (§1)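 Relative viability is defined as nuclei in treated wells over nuclei in vehicle wells. Duplicate plates were run and medians reported. Lung cancer cell lines in 1536-well plates were dosed by pin tool one day after seeding, with one drug or with a fixed anchor-drug dose plus five library-drug doses (not always all listed) in √10 steps, and nuclei were counted after 5 days.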

ALW-II-49-7 + Decitabine = compound: Cc1ccc(C(=O)Nc2cccc(C(F)(F)F)c2)cc1Nc1cncc(C(N)=O)c1 [ALW-II-49-7] + Nc1ncn([C@H]2C[C@H](O)[C@@H](CO)O2)c(=O)n1 [Decitabine] (partner 2 µM)
In short: as §1

ALW-II-49-7 + OSI-027 = compound: Cc1ccc(C(=O)Nc2cccc(C(F)(F)F)c2)cc1Nc1cncc(C(N)=O)c1 [ALW-II-49-7] + COc1cccc2cc(-c3nc([C@H]4CC[C@H](C(=O)O)CC4)n4ncnc(N)c34)[nH]c12 [OSI-027] (partner 0.5 µM)
In short: as §1

Dasatinib + AZD7762 = compound: Cc1nc(Nc2ncc(C(=O)Nc3c(C)cccc3Cl)s2)cc(N2CCN(CCO)CC2)n1 [Dasatinib] + NC(=O)Nc1cc(-c2cccc(F)c2)sc1C(=O)N[C@H]1CCCNC1 [AZD7762] (partner 0.2 µM)
In short: as §1

Cell Line	relative viability (Dasatinib + Vorinostat; first compound 0.005 µM)	relative viability (Dasatinib + Vorinostat; first compound 0.01581 µM)	relative viability (Dasatinib + Vorinostat; first compound 0.05 µM)	relative viability (Dasatinib + Vorinostat; first compound 0.1581 µM)	relative viability (Dasatinib + Vorinostat; first compound 0.5 µM)	relative viability (ALW-II-49-7 + Decitabine; first compound 0.08 µM)	relative viability (ALW-II-49-7 + Decitabine; first compound 0.253 µM)	relative viability (ALW-II-49-7 + Decitabine; first compound 0.8 µM)	relative viability (ALW-II-49-7 + Decitabine; first compound 2.53 µM)	relative viability (ALW-II-49-7 + Decitabine; first compound 8 µM)	relative viability (ALW-II-49-7 + OSI-027; first compound 0.08 µM)	relative viability (ALW-II-49-7 + OSI-027; first compound 0.253 µM)	relative viability (ALW-II-49-7 + OSI-027; first compound 0.8 µM)	relative viability (ALW-II-49-7 + OSI-027; first compound 2.53 µM)	relative viability (ALW-II-49-7 + OSI-027; first compound 8 µM)	relative viability (Dasatinib + AZD7762; first compound 0.005 µM)	relative viability (Dasatinib + AZD7762; first compound 0.01581 µM)	relative viability (Dasatinib + AZD7762; first compound 0.05 µM)	relative viability (Dasatinib + AZD7762; first compound 0.1581 µM)	relative viability (Dasatinib + AZD7762; first compound 0.5 µM)
NCI-H2023	0.681	0.688	0.568	0.561	0.429	0.226	0.214	0.255	0.249	0.347	0.379	0.44	0.37	0.354	0.3	–	–	–	–	–
NCI-H1666	1.2	1.06	1.23	1.07	0.761	0.751	0.735	0.735	0.898	0.714	0.905	0.869	0.778	1.02	0.816	0.852	0.685	0.762	0.622	0.411
NCI-H1975	0.668	0.613	0.654	0.356	0.299	0.43	0.375	0.319	0.375	0.388	0.555	0.785	0.72	0.553	0.486	0.714	0.538	0.578	0.442	0.317
NCI-H2170	0.797	0.72	0.743	0.467	0.334	0.542	0.478	0.5	0.464	0.468	0.71	0.931	0.67	0.664	0.703	0.864	0.779	0.633	0.409	0.278
NCI-H1355	0.618	0.54	0.655	0.445	0.331	0.329	0.366	0.391	0.436	0.376	0.372	0.404	0.363	0.364	0.353	0.851	0.711	0.694	0.571	0.535
NCI-H1648	0.374	0.481	0.606	0.266	0.179	0.545	0.48	0.531	0.454	0.509	0.254	0.264	0.264	0.255	0.215	0.677	0.725	0.724	0.369	0.254
A549	–	–	–	–	–	0.207	0.211	0.246	0.335	0.254	–	–	–	–	–	–	–	–	–	–
SK-MES-1	1.19	0.961	0.977	0.503	0.206	0.354	0.35	0.473	0.445	0.398	0.588	0.547	0.578	0.456	0.331	–	–	–	–	–
EKVX	0.725	0.642	0.6	0.355	0.267	0.513	0.321	0.327	0.318	0.408	0.579	0.773	0.578	0.653	0.679	0.684	0.663	0.515	0.221	0.172
RERF-LC-KJ	0.667	0.602	0.585	0.491	0.416	0.694	0.783	0.729	0.732	0.611	0.511	0.564	0.504	0.559	0.535	1.06	0.824	0.889	0.761	0.6
NCI-H1755	0.655	0.718	0.568	0.421	0.374	0.66	0.726	0.719	0.756	0.719	0.789	0.728	0.7	0.67	0.532	0.424	0.33	0.296	0.25	0.215
NCI-H661	0.927	0.791	0.851	0.813	0.74	0.519	0.583	0.574	0.541	0.5	0.552	0.773	0.781	0.78	0.452	–	–	–	–	–
LOU-NH91	0.822	0.846	0.687	0.583	0.429	0.785	0.824	0.844	–	0.861	0.666	0.733	0.684	0.729	0.676	0.747	0.638	0.623	0.469	0.384
LXF-289	0.754	0.779	0.762	0.495	0.254	0.391	0.372	0.411	0.407	0.443	0.697	0.901	0.846	0.81	0.735	1.14	1.12	1.09	0.371	0.184
HCC-44	1.26	1.03	1.32	1.16	0.867	0.971	0.974	0.945	0.996	0.913	–	0.743	0.325	0.533	0.414	1.07	0.992	1.19	1.33	1.1
